From patent US20040063662A1, “Selenophene anti-tumor agents” (priority 1996, published 2004)

Assays:
NCI-H23 = test: NCI human tumor cell panel: NCI-H23 (Non-Small Cell Lung Cancer); type: cell-based
HOP-92 = test: NCI human tumor cell panel: HOP-92 (Non-Small Cell Lung Cancer)
SNB-19 = test: NCI human tumor cell panel: SNB-19 (CNS Cancer); type: cell-based
MCF7 = test: NCI human tumor cell panel: MCF7 (Breast Cancer); type: cell-based
OVCAR-3 = test: NCI human tumor cell panel: OVCAR-3 (Ovarian Cancer); type: cell-based
SK-MEL-28 = test: NCI human tumor cell panel: SK-MEL-28 (Melanoma); type: cell-based
U251 = test: NCI human tumor cell panel: U251 (CNS Cancer); type: cell-based
SF-295 = test: NCI human tumor cell panel: SF-295 (CNS Cancer); type: cell-based
UACC-62 = test: NCI human tumor cell panel: UACC-62 (Melanoma); type: cell-based
SF-539 = test: NCI human tumor cell panel: SF-539 (CNS Cancer); type: cell-based
UACC-257 = test: NCI human tumor cell panel: UACC-257 (Melanoma); type: cell-based
OVCAR-4 = test: NCI human tumor cell panel: OVCAR-4 (Ovarian Cancer); type: cell-based
MDA-N = test: NCI human tumor cell panel: MDA-N (Breast Cancer); type: cell-based
MOLT-4 = test: NCI human tumor cell panel: MOLT-4 (Leukemia); type: cell-based
M14 = test: NCI human tumor cell panel: M14 (Melanoma); type: cell-based
HS 578T = test: NCI human tumor cell panel: HS 578T (Breast Cancer); type: cell-based
MCF7/ADR-RES = test: NCI human tumor cell panel: MCF7/ADR-RES (Breast Cancer); type: cell-based
CCRF-CEM = test: NCI human tumor cell panel: CCRF-CEM (Leukemia); type: cell-based
MALME-3M = test: NCI human tumor cell panel: MALME-3M (Melanoma); type: cell-based; details: Malme-3M
A549/ATCC = test: NCI human tumor cell panel: A549/ATCC (Non-Small Cell Lung Cancer); type: cell-based
SK-MEL-5 = test: NCI human tumor cell panel: SK-MEL-5 (Melanoma); type: cell-based
HT29 = test: NCI human tumor cell panel: HT29 (Colon Cancer); type: cell-based
ACHN = test: NCI human tumor cell panel: ACHN (Renal Cancer); type: cell-based
NCI-H460 = test: NCI human tumor cell panel: NCI-H460 (Non-Small Cell Lung Cancer); type: cell-based
MDA-MB-435 = test: NCI human tumor cell panel: MDA-MB-435 (Breast Cancer); type: cell-based
PC-3 = test: NCI human tumor cell panel: PC-3 (Prostate Cancer); type: cell-based
A498 = test: NCI human tumor cell panel: A498 (Renal Cancer); type: cell-based
TK-10 = test: NCI human tumor cell panel: TK-10 (Renal Cancer); type: cell-based; details: TK-10, read-out: Log10 GI50 (converted)
HOP-62 = test: NCI human tumor cell panel: HOP-62 (Non-Small Cell Lung Cancer); type: cell-based
HCT-116 = test: NCI human tumor cell panel: HCT-116 (Colon Cancer); type: cell-based
NCI-H322M = test: cells; type: cell-based; details: Homo sapiens
SR = test: NCI human tumor cell panel: SR (Leukemia); type: cell-based
[1] = read-out: Log10 GI50 (converted)
[2] = read-out: Log10 TGI (converted)

Structure (SMILES): OCc1ccc(-c2ccc(-c3ccc(CO)[se]3)[se]2)[se]1 [compound 675247]
- GI50 (NCI-H23; NCI-H23, read-out: Log10 GI50 (converted)): 6.61 µM
- IC (TGI) (NCI-H23; NCI-H23, read-out: Log10 TGI (converted)): 25.1 µM
- GI50 (HOP-92; HOP-92, read-out: Log10 GI50 (converted)): 2400 nM
- IC (TGI) (HOP-92; HOP-92, read-out: Log10 TGI): 7.59 µM
- GI50 (SNB-19; SNB-19, read-out: Log10 GI50 (converted)): 5.5 µM
- IC (TGI) (SNB-19; SNB-19, read-out: Log10 TGI (converted)): 25.1 µM
- GI50 (MCF7; MCF7, read-out: Log10 GI50 (converted)): 158 nM
- IC (TGI) (MCF7; MCF7, read-out: Log10 TGI (converted)): 11.2 µM
- GI50 (OVCAR-3; OVCAR-3, read-out: Log10 GI50 (converted)): 209 nM
- IC (TGI) (OVCAR-3; OVCAR-3, read-out: Log10 TGI (converted)): 1.17 µM
- GI50 (SK-MEL-28; SK-MEL-28, read-out: Log10 GI50 (converted)): 5.13 µM
- IC (TGI) (SK-MEL-28; SK-MEL-28, read-out: Log10 TGI (converted)): > 100 µM
- GI50 (U251; U-251, U251, read-out: Log10 GI50 (converted)): 468 nM
- IC (TGI) (U251; U-251, U251, read-out: Log10 TGI (converted)): 12.3 µM
- GI50 (SF-295; SF-295, read-out: Log10 GI50 (converted)): 11.7 µM
- IC (TGI) (SF-295; SF-295, read-out: Log10 TGI (converted)): 28.8 µM
- GI50 (UACC-62; UACC-62, read-out: Log10 GI50 (converted)): 155 nM
- IC (TGI) (UACC-62; UACC-62, read-out: Log10 TGI (converted)): 2.45 µM
- GI50 (SF-539; SF-539, read-out: Log10 GI50 (converted)): 17.4 µM
- IC (TGI) (SF-539; SF-539, read-out: Log10 TGI (converted)): 40.7 µM
- GI50 (UACC-257; UACC-257, read-out: Log10 GI50 (converted)): 437 nM
- IC (TGI) (UACC-257; UACC-257, read-out: Log10 TGI (converted)): 2 µM
- GI50 (OVCAR-4; OVCAR-4, read-out: Log10 GI50 (converted)): 1700 nM
- IC (TGI) (OVCAR-4; OVCAR-4, read-out: Log10 TGI (converted)): 6.92 µM
- GI50 (MDA-N; [1]): 7.76 µM
- IC (TGI) (MDA-N; [2]): 25.1 µM
- GI50 (MOLT-4; MOLT-4, read-out: Log10 GI50 (converted)): 3.31 µM
- IC (TGI) (MOLT-4; MOLT-4, read-out: Log10 TGI (converted)): 8.32 µM
- GI50 (M14; M14, read-out: Log10 GI50 (converted)): 3.72 µM
- IC (TGI) (M14; M14, read-out: Log10 TGI (converted)): 12.9 µM
- GI50 (HS 578T; [1]): 3.24 µM
- IC (TGI) (HS 578T; [2]): 11.2 µM
- GI50 (MCF7/ADR-RES; [1]): 3.8 µM
- IC (TGI) (MCF7/ADR-RES; [2]): 26.3 µM
- GI50 (CCRF-CEM; [1]): 3.39 µM
- IC (TGI) (CCRF-CEM; [2]): 10 µM
- GI50 (MALME-3M; [1]): 2880 nM
- IC (TGI) (MALME-3M; [2]): 10.7 µM
- GI50 (A549/ATCC; [1]): 4.57 µM
- IC (TGI) (A549/ATCC; [2]): 19.5 µM
- GI50 (SK-MEL-5; SK-MEL-5, read-out: Log10 GI50 (converted)): 1450 nM
- IC (TGI) (SK-MEL-5; SK-MEL-5, read-out: Log10 TGI (converted)): 3.02 µM
- GI50 (HT29; HT-29, HT29, read-out: Log10 GI50 (converted)): 1620 nM
- IC (TGI) (HT29; HT-29, HT29, read-out: Log10 TGI (converted)): 7.59 µM
- GI50 (ACHN; [1]): 3.98 µM
- IC (TGI) (ACHN; [2]): > 100 µM
- GI50 (NCI-H460; NCI-H460, read-out: Log10 GI50 (converted)): 525 nM
- IC (TGI) (NCI-H460; NCI-H460, read-out: Log10 TGI (converted)): 10 µM
- GI50 (MDA-MB-435; MDA-MB-435, read-out: Log10 GI50 (converted)): 2950 nM
- IC (TGI) (MDA-MB-435; MDA-MB-435, read-out: Log10 TGI (converted)): 9.77 µM
- GI50 (PC-3; PC-3, read-out: Log10 GI50 (converted)): 3.55 µM
- IC (TGI) (PC-3; PC-3, read-out: Log10 TGI (converted)): 12.3 µM
- GI50 (A498; A498, read-out: Log10 GI50 (converted)): 380 nM
- IC (TGI) (A498; A498, read-out: Log10 TGI (converted)): 1.41 µM
- GI50 (TK-10): 138 nM
- GI50 (HOP-62; HOP-62, read-out: Log10 GI50 (converted)): 5.5 µM
- IC (TGI) (HOP-62; HOP-62, read-out: Log10 TGI (converted)): 21.4 µM
- GI50 (HCT-116; HCT-116, read-out: Log10 GI50 (converted)): 537 nM
- IC (TGI) (HCT-116; HCT-116, read-out: Log10 TGI (converted)): 11.2 µM
- GI50 (NCI-H322M; [1]): 11.2 µM
- IC (TGI) (NCI-H322M; [2]): 24.5 µM
- GI50 (SR; [1]): 3.72 µM
- IC (TGI) (SR; [2]): > 100 µM
